# Experimental data taken from patent US20250228858A1, “ANTI-CANCER COMBINATION THERAPY” (Boehringer Ingelheim International GmbH, priority 2023, published 2025).
# Tested on: HER2-overexpressing human ovarian cell line SK-OV-3
# Test: SK-OV-3 subcutaneous xenograft, zongertinib with T-DXd
# Assay type: in vivo, NMRI-Foxn1^nu mice
# Procedure: The study is performed in human ovarian cancer cell line SK-OV-3 grown as subcutaneous xenografts in NMRI-Foxn1^nu mice. Day 1 was the first day, day 20 the last day of treatment and final day of analysis.
# SK-OV-3 is a HER2-overexpressing human ovarian cancer cell line that can be obtained from ATCC (lot HTB-77). Cells are cultured in T75, T175 and 5-Layer tissue culture flasks at 37° C. and 5% CO2. The medium used is IMDM (PAN-Biotech, #P04-200150) supplemented with 10% FCS (Cytiva HyClone Characterized FBS, SH30084.03n). Cultures are split twice weekly with a ratio of 1:2-1:3.
# To establish subcutaneous tumors, SK-OV-3 cells are harvested by centrifugation, washed and resuspended in PBS+5% FCS at 5×10^7 cells/ml. 100 μl cell suspension containing 5×10^6 cells is injected subcutaneously into the right flank of mice (1 site per mouse).
# Apart from this, statistical analysis was performed as described in Example 1 (see paragraph 1.1.7), with no evaluation of tumor growth after stop of treatment.
smiles,measurement,setting,value
"C=CC(=O)NC1CCN(c2ncc3ncnc(Nc4ccc(Oc5ccc6c(c5)ncn6C)c(C)c4)c3n2)CC1 [Zongertinib, N-{1-[8-({3-methyl-4-[(1-methyl-1H-1,3-benzodiazol-5-yl)oxy]phenyl}amino)-[1,3]diazino [5,4-d]pyrimidin-2-yl]piperidin-4-yl}prop-2-enamide]",TGI,"day 15, zongertinib 10 mg/kg qdx20 p.o., T-DXd 7 mg/kg q21dx1 i.v., alone or combined",91%
same,Regressions >30%,"day 20, tumors regressed/total (partial response), zongertinib 10 mg/kg qdx20 p.o., T-DXd 7 mg/kg q21dx1 i.v., alone or combined",0/8
same,stable diseases,"day 20, zongertinib 10 mg/kg qdx20 monotherapy",2 out of 8
